Test results reported in patent publication US10570121B2, “Substituted dihydroisoquinolinone compounds” (priority 2014, dated 2020).
pIC50, pKi: −log10 of the molar value. Read-outs that look alike come from different tables or passages of the source.

Assays:
EZH2 Mutant Y641N = EZH2 Mutant Y641N (Homo sapiens (Human), UniProt Q15910, Y641N); test: EZH2 Mutant Y641N nucleosome assay; type: biochemical; settings: PRC2 4-protein complex 6 nM, 1.5 μM SAM, HeLa oligonucleosomes; for pIC50: read-out: EZH2 Mutant Y641N Nucleosome assay IC50; for IC50: EZH2 Mutant Y641N Nucleosome assay IC50 (μM)
Procedure: (§1) The genes for EZH2, EED, SUZ12, and RBBP4 proteins were cloned into pBacPAK9 vectors (Clontech). RBBP4 was FLAG tagged on the N-terminal end. The baculovirus expressions of these proteins were used to co-infect SF9 insect cells. Insect cell pellets were lysed in a buffer containing 25 mM Tris pH8.0, 300 mM NaCl, 0.5 mM TCEP, complete EDTA-free protease inhibitor (Roche), 0.1% NP-40. The supernatant from the lysate was incubated with FLAG® M2 antibody resin (Sigma). The resin was washed on the chromatography column and eluted with 0.2 mg/ml FLAG peptide. The elute was incubated with omnicleave nucleases (Epicentre Technologies) at 4° C. overnight, then concentrated and loaded onto a Superdex 200 (GE Healthcare) column. The Superdex 200 column was eluted with 25 mM Tris pH8.0, 150 mM NaCl, 0.5 mM TCEP. Fractions containing the PRC2 complex were pooled.
(§2) A. Compound preparation • 1.
(§3) B. Reagent preparation • 1. […] Dilute TCA to 20% in DI water
(§4) C. Enzyme reaction • 1. […] Some compounds were tested under high SAM conditions.
(§5) D. Data analysis • 1. IC50 values were determined by fitting the data to a 4-parameter IC50 equation using proprietary curve fitting software. • 2. For compounds tested under high SAM conditions, Ki^app values were obtained by fitting the dose response curve to a model for competitive inhibition using proprietary curve fitting software. Preparation of HeLa Oligonucleosomes: Reagents • Cell Pellet: 15 L HeLa S3 (Accelgen)+6 L HeLa S3 (in house) • Mnase (Worthington Biochemicals) Equipment • SW-28 Rotor • Dounce Homogenizer/B Pestle Buffers • Lysis: 20 mM Hepes pH 7.5, 0.25M Sucrose, 3 mM MgCl2, 0.5% Nonidet P-40, 0.5 mM TCEP, 1 Roche Protease Tablet • B: 20 mM Hepes pH7.5, 3 mM MgCl2, 0.5 mM EDTA, 0.5 mM TCEP, 1 Roche Protease Tablet • MSB: 20 mM Hepes pH7.5, 0.4 M NaCl, 1 mM EDTA, 5% v/v Glycerol, 0.5 mM TCEP, 0.2 mM PMSF • LSB: 20 mM Hepes pH7.5, 0.1M NaCl, 1 mM EDTA, 0.5 mM TCEP, 0.2 mM PMSF • NG: 20 mM Hepes pH7.5, 1 mM EDTA, 0.4 m NaCl, 0.2 mM PMSF, 0.5 mM TCEP • Storage: 20 mM Hepes pH7.5, 1 mM EDTA, 10% Glycerol, 0.2 mM PMSF, 0.5 mM TCEP Protocol

WT EZH2 = WT EZH2 (Homo sapiens (Human), UniProt Q15910); test: WT EZH2 nucleosome assay (10X SAM, high SAM conditions); type: biochemical; settings: 15 uM SAM, Ki app from competitive inhibition fit; for pKi: read-out: WT EZH2 Nucleosome assay (10X SAM) Ki; for Ki: WT EZH2 Nucleosome assay (10X SAM) Ki (μM)
Procedure: as §1, §2, §3, §4, §5

WT EZH2, sequence (Q15910 whole entry, looked up): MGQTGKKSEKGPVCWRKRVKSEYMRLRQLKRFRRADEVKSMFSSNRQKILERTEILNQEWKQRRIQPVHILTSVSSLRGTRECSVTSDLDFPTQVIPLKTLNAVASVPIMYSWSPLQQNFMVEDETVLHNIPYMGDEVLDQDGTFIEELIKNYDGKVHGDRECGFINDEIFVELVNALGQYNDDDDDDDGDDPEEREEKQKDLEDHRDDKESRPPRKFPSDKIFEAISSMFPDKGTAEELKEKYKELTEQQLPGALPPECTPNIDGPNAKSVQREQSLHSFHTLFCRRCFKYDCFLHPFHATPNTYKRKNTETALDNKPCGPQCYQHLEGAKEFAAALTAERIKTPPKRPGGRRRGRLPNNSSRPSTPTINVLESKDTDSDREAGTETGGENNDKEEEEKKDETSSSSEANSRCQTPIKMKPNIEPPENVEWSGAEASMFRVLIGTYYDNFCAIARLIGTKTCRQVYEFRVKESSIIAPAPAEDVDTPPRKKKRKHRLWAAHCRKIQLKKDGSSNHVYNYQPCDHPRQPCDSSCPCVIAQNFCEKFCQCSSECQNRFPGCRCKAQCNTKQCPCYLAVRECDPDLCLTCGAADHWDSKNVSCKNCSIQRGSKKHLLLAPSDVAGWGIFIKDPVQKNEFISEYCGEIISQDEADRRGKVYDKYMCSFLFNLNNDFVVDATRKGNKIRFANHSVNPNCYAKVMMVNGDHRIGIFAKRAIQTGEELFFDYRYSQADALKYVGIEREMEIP
WT EZH2, sequence (O75530 whole entry partner, looked up): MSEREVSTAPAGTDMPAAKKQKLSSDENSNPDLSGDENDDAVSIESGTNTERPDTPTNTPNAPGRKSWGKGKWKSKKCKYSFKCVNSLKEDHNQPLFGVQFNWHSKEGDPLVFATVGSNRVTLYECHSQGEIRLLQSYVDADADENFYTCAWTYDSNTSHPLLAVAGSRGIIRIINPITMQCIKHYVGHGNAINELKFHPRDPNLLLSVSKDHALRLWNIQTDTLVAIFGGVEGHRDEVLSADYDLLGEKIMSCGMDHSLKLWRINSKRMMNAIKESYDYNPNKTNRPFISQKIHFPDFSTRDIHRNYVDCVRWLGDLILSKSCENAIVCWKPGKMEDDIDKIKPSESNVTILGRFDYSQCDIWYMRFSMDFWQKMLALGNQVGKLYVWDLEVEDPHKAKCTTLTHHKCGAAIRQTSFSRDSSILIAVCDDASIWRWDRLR
WT EZH2, sequence (Q15022 whole entry partner, looked up): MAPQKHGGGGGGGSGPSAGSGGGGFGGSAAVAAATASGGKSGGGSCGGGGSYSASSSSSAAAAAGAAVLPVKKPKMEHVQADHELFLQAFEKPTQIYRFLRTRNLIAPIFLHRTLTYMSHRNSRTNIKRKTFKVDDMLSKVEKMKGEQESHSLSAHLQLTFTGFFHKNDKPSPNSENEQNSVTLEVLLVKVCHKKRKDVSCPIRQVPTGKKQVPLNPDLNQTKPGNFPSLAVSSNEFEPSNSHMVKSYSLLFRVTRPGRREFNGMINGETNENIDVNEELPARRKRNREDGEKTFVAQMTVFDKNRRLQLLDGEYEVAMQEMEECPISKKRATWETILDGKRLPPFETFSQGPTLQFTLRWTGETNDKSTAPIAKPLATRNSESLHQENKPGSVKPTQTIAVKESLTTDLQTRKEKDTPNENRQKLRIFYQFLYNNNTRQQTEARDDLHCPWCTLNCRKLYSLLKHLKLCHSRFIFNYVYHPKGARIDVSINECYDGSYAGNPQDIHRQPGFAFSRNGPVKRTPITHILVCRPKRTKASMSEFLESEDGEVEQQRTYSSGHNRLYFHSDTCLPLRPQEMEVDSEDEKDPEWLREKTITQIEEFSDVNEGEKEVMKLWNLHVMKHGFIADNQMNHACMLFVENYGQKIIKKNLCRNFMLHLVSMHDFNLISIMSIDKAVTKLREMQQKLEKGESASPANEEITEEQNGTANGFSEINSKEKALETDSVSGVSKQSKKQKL
WT EZH2, sequence (Q09028 whole entry partner, looked up): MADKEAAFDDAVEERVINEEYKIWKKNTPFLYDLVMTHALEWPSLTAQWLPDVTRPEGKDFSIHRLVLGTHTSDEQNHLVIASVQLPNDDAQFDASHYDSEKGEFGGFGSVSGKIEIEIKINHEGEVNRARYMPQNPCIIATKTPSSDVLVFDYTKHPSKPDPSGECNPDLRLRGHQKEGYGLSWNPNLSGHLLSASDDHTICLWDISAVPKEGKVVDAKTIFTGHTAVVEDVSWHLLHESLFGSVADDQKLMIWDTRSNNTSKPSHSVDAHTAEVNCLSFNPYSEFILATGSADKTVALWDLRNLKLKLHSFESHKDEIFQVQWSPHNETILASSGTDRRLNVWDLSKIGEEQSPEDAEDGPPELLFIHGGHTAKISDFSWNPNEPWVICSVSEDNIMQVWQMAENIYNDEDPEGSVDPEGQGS
EZH2 Mutant Y641N, sequence (Q15910 whole entry Y641N, looked up): as the sequence (Q15910 whole entry, looked up) above, with Y641N counted along it
EZH2 Mutant Y641N, sequence (O75530 whole entry partner, looked up): as the sequence (O75530 whole entry partner, looked up) above
EZH2 Mutant Y641N, sequence (Q15022 whole entry partner, looked up): as the sequence (Q15022 whole entry partner, looked up) above
EZH2 Mutant Y641N, sequence (Q09028 whole entry partner, looked up): as the sequence (Q09028 whole entry partner, looked up) above

pIC50 (EZH2 Mutant Y641N) | pKi (WT EZH2) | IC50 (EZH2 Mutant Y641N) [µM] | Ki (WT EZH2) [µM] | SMILES
7.33 | 8.22 |  |  | Cc1cc(C)c(CN2CCc3ccc([C@H](CO)[C@@H]4CCOC4)c(Cl)c3C2=O)c(=O)[nH]1 (racemic) [Example 65]
 |  | 0.008 | 0.0009 | COc1cc(C)[nH]c(=O)c1CN1CCc2c(Cl)cc(C(OC)C3CCOC3)c(Cl)c2C1=O (single isomer, unassigned) [Example 125]
6.63 | 7.14 |  |  | COc1cc(C)[nH]c(=O)c1CN1CCc2c(Cl)cc(C(OC)C3CCN(C(C)=O)CC3)c(Cl)c2C1=O (single isomer, unassigned) [Example 122]
7.00 | 7.82 |  |  | COc1cc(C)[nH]c(=O)c1CN1CCc2c(Cl)cc(C(OC)C3CCN(C=O)CC3)c(Cl)c2C1=O (single isomer, unassigned) [Example 119]
 |  | 0.086 | 0.021 | COC(c1cc(Cl)c2c(c1Cl)C(=O)N(Cc1c(C)cc(C)[nH]c1=O)CC2)C1CCOC1 (single isomer, unassigned) [Example 160]
6.27 | 6.89 |  |  | COC(c1cc(Br)c2c(c1Cl)C(=O)N(Cc1c(C)cc(C)[nH]c1=O)CC2)C1CCN(C)CC1 (single isomer, unassigned) [Example 147]
5.87 | 6.39 |  |  | Cc1cc(C)c(CN2CCc3c(Cl)cc(C(CO)N4CCCC4)c(Cl)c3C2=O)c(=O)[nH]1 (racemic) [Example 57]
6.62 | 7.85 |  |  | Cc1cc(C)c(CN2CCc3c(Cl)cc(C(C)C4CN(S(C)(=O)=O)C4)c(Cl)c3C2=O)c(=O)[nH]1 (single isomer, unassigned) [Example 186]
7.92 | 8.40 |  |  | Cc1cc(C)c(CN2CCc3c(Cl)cc([C@@H](CC#N)[C@@H]4CCOC4)c(Cl)c3C2=O)c(=O)[nH]1 (single isomer, unassigned) [Example 54]
5.06 | 5.91 |  |  | Cc1cc(C)c(CN2CCc3ccc(C(CO)C4CCOC4)c(Cl)c3C2=O)c(=O)[nH]1 (single isomer, unassigned) [Example 98]
8.70 | 10.00 |  |  | COc1cc(C)[nH]c(=O)c1CN1CCc2c(Cl)cc(C(C)C3CCN(C(=O)CO)CC3)c(Cl)c2C1=O (single isomer, unassigned) [Example 200]
5.75 | 6.56 |  |  | COC(c1cc(Cl)c2c(c1Cl)C(=O)N(Cc1c(C)cc(C)[nH]c1=O)CC2)[C@@H](C)CO (single isomer, unassigned) [Example 143]
7.92 | 9.00 |  |  | Cc1cc(C)c(CN2CCc3c(Cl)cc(C(C)C4CN(S(C)(=O)=O)C4)c(Cl)c3C2=O)c(=O)[nH]1 (single isomer, unassigned) [Example 185]
6.55 | 7.31 |  |  | COC(c1cc(Cl)c2c(c1Cl)C(=O)N(Cc1c(C)cc(C)[nH]c1=O)CC2)C1CN(S(C)(=O)=O)C1 (single isomer, unassigned) [Example 177]
7.70 | 8.52 |  |  | COC(c1cc(C)c2c(c1Cl)C(=O)N(Cc1c(C)cc(C)[nH]c1=O)CC2)C1CNC1 (racemic) [Example 178]
5.06 | 6.08 |  |  | COC(c1ccc2c(c1Cl)C(=O)N(Cc1c(C)cc(C)[nH]c1=O)CC2)C1CCOC1 (single isomer, unassigned) [Example 133]

pIC50 (EZH2 Mutant Y641N) | pKi (WT EZH2) | IC50 (EZH2 Mutant Y641N) [µM] | Ki (WT EZH2) [µM] | SMILES
7.57 | 8.52 |  |  | Cc1cc(C)c(CN2CCc3ccc(C(CO)C4CCOC4)c(Cl)c3C2=O)c(=O)[nH]1 (single isomer, unassigned) [Example 97]
6.59 | 7.54 |  |  | COC(c1cc(Cl)c2c(c1Cl)C(=O)N(Cc1c(C)cc(C)[nH]c1=O)CC2)C1(F)CCN(C)CC1 (single isomer, unassigned) [Example 121]
 |  | 0.165 | 0.056 | COc1cc(C)[nH]c(=O)c1CN1CCc2c(Cl)cc(C(OC)C3CCOC3)c(Cl)c2C1=O (single isomer, unassigned) [Example 126]
8.70 | 9.70 |  |  | COC(c1cc(Cl)c2c(c1Cl)C(=O)N(Cc1c(C)cc(C)[nH]c1=O)CC2)C1CCNCC1 (single isomer, unassigned) [Example 166]
7.00 | 7.80 |  |  | Cc1cc(C)c(CN2CCc3c(Cl)cc(C(C)C4CNC4)c(Cl)c3C2=O)c(=O)[nH]1 (single isomer, unassigned) [Example 190]
8.05 | 9.10 |  |  | COC(c1cc(Cl)c2c(c1Cl)C(=O)N(Cc1c(C)cc(C)[nH]c1=O)CC2)C1CCS(=O)(=O)C1 (single isomer, unassigned) [Example 151]
4.71 | 5.80 |  |  | Cc1cc(C)c(CN2CCc3c(Cl)cc(C(CO)N4CCC(F)(F)C4)c(Cl)c3C2=O)c(=O)[nH]1 (single isomer, unassigned) [Example 67]
8.30 | 9.70 |  |  | COc1cc(C)[nH]c(=O)c1CN1CCc2c(Cl)cc(C(OC)C3CCN(C(C)=O)CC3)c(Cl)c2C1=O (single isomer, unassigned) [Example 123]
7.89 | 9.22 |  |  | COC(c1cc(Cl)c2c(c1Cl)C(=O)N(Cc1c(C)cc(C)[nH]c1=O)CC2)C1CN(C)C1 (single isomer, unassigned) [Example 174]
6.81 | 7.60 |  |  | Cc1cc(C)c(CN2CCc3c(Cl)cc(C(CO)N4CCC(F)(F)C4)c(Cl)c3C2=O)c(=O)[nH]1 (racemic) [Example 59]
6.36 | 7.25 |  |  | COC(c1cc(Cl)c2c(c1Cl)C(=O)N(Cc1c(C)cc(C)[nH]c1=O)CC2)C1CCS(=O)(=O)C1 (single isomer, unassigned) [Example 148]
 |  | 0.006 |  | [2H]C([2H])([2H])OC(c1cc(Cl)c2c(c1Cl)C(=O)N(Cc1c(C)cc(C)[nH]c1=O)CC2)C1CCN(C(=O)CO)CC1 (racemic) [Example 70]
8.40 |  |  |  | Cc1cc(OC(F)F)c(CN2CCc3c(Cl)cc(C(CO)C4CCOCC4)c(Cl)c3C2=O)c(=O)[nH]1 (single isomer, unassigned) [Example 56]
8.70 |  |  |  | COC(c1cc(Cl)c2c(c1Cl)C(=O)N(Cc1c(C)cc(C)[nH]c1=O)CC2)C1CCN(C=O)CC1 (single isomer, unassigned) [Example 73]
8.52 |  |  |  | COC(c1cc(Cl)c2c(c1Cl)C(=O)N(Cc1c(C)cc(C)[nH]c1=O)CC2)C1CCN(C(=O)CC#N)CC1 (single isomer, unassigned) [Example 71]

SMILES | pIC50 (EZH2 Mutant Y641N) | pKi (WT EZH2) | IC50 (EZH2 Mutant Y641N) [µM] | Ki (WT EZH2) [µM]
Cc1cc(C)c(CN2CCc3c(Cl)cc(C(C)N4CCOCC4)c(Cl)c3C2=O)c(=O)[nH]1 (single isomer, unassigned; (-)) [Example 91, (−)-5,8-dichloro-2-[(4,6-dimethyl-2-oxo-1,2-dihydropyridin-3-yl)methyl]-7-[1-(morpholin-4-yl)ethyl]-3,4-dihydroisoquinolin-1(2H)-one] | 7.64 | 9.00 |  | 
CC(=C1CNC1)c1cc(Cl)c2c(c1Cl)C(=O)N(Cc1c(C)cc(C)[nH]c1=O)CC2 [Example 74, 7-(1-(azetidin-3-ylidene)ethyl)-5,8-dichloro-2-((4,6-dimethyl-2-oxo-1,2-dihydropyridin-3-yl)methyl)-3,4-dihydroisoquinolin-1(2H)-one] | 7.29 | 8.30 |  | 
COc1cc(C)[nH]c(=O)c1CN1CCc2c(C)cc(C(C)=C3CN(S(C)(=O)=O)C3)c(Cl)c2C1=O [Example 78] | 7.40 | 8.40 |  | 
Cc1cc(C)c(CN2CCc3c(Cl)cc([C@@H](CO)[C@@H]4CCOC4)c(Cl)c3C2=O)c(=O)[nH]1 [Example 4, 5,8-dichloro-2-[(4,6-dimethyl-2-oxo-1,2-dihydropyridin-3-yl)methyl]-7-{(1S)-2-hydroxy-1-[(3S)-tetrahydrofuran-3-yl]ethyl}-3,4-dihydroisoquinolin-1(2H)-one] | 5.71 |  |  | 
Cc1cc(C)c(CN2CCc3c(Cl)cc(C(CO)N4CC[C@H](F)C4)c(Cl)c3C2=O)c(=O)[nH]1 (single isomer, unassigned) [Example 62] | 6.58 | 7.46 |  | 
COC(c1cc(Cl)c2c(c1Cl)C(=O)N(Cc1c(C)cc(C)[nH]c1=O)CC2)C1CCOCC1 (single isomer, unassigned) [Example 51] | 8.70 |  |  | 
